The test system of assay [1] is PC12 cells. In words: Determination of neurite outgrowth rate in PC12 cells (image count). It is filed as cell-based. As to conditions: NGF added section (100 ng/mL), 96 hours. Here is the method: PSG-1 belongs to an immunoglobulin super family which includes some having the function of promoting neurogenesis. Then, the influence of 1,5-AG upon neuritogenesis was investigated. This was evaluated in a test system using PC12 cells which are generally used for the evaluation of neuritogenesis.
PC12 cells (Lot No. 48, Lot No. 51) (RIKEN cell bank, material 1)
DMEM medium prepared by adding 0.1% of FBS, 0.1% of HS, 1 ng/mL NGF and 1% of penicillin-streptomycin
PC12 cells were initiated in a T-75 flask by using a growth medium to be cultured in a CO2 incubator (5% CO2, 37° C., moistening). Medium exchange was carried out every 2 days, the cells were collected when 80% confluence was reached, and cells having a passage number of 2 were used in this test. Stated more specifically, after the cells were washed with D-PBS (−), the cells were separated by using 0.05% trypsin, and a growth medium was added to neutralize trypsin. Then, the supernatant was removed by centrifugation (180 g, 5 minutes), a growth medium was added to stir the cells, the number of the cells was counted by using a corpuscle calculating board, and a growth medium was used to achieve a target concentration (2.0×10^3 cells/100 μL).
(§1) A test was carried out at five concentrations (1.6, 8, 40, 200 and 1,000 μg/mL) of 1,5-AG. Stated more specifically, a 1,5-AG aqueous solution having a concentration of 100 mg/mL was diluted with water to prepare 100 times-concentrated solutions having concentrations of 0.16, 0.8, 4, 20 and 100 mg/mL. These 100 times-concentrated solutions were each added to a test medium in a ratio of 1/100 to achieve final concentrations of 1.6, 8, 40, 200 and 1,000 μg/mL and sterilized with a filter to be used in the test. As a negative control, water was added to a medium in a ratio of 1/100 and sterilized with a filter to be used in the test. As a positive control, a test medium containing a 100 ng/mL nerve growth factor (NGF) was used.
(§2) A growth medium was used to adjust the cells to a concentration of 2.0×10^3 cells/100 μL/well, and the cells were scattered in a collagen-coated 96-well plate to be cultured in a CO2 incubator (5% CO2, 37° C., moistening) for 24 hours. After culture, the medium was replaced by a sample-containing test medium (100 μL), and the cells were cultured in a CO2 incubator for 96 hours. After the end of culture, an image of the cells in each well was taken with a phase difference microscope and used for the measurement of nuetrite outgrowth rate, and nuclei and cytoplasms were fluorescent dyed by using a neurite outgrowth staining kit to measure the number of living cells and the amount of neurite outgrowth. These procedures were carried out five times each.
Based on the image taken above, the total number of cells, the number of cells showing the same or higher neurite outgrowth than the cell length and the number of cells showing neurites having a length 2 times or more than the cell length were measured from the image of the cells. The percentage (%) of cells showing neurite outgrowth was calculated from the measurement values.

Assay [2] relates to PC12 cells. In words: Fluorescence determination of number of living cells and amount of neurite outgrowth (neurite outgrowth staining kit). As to conditions: NGF added section (100 ng/mL). It is filed as cell-based. Here is the method: as §1, §2
After the end of culture, the number of living cells and the amount of neurite outgrowth were determined by using a neurite outgrowth staining kit. Stated more specifically, after the medium was removed, 100 μL of a staining solution (prepared by diluting Cell Viability Indicator and Cell Membrane Stain attached to the kit with calcium magnesium-containing PBS 1,000 times) was added to each well to incubate the cells at 37° C. for 20 minutes. After incubation, the staining solution was removed, 100 μL of a background suppression solution (prepared by diluting the background suppression dye attached to the kit with calcium magnesium-containing PBS 100 times) was added to each well so as to measure fluorescence intensity with a micro plate reader (measurement of the number of living cells: excitation wavelength of 495 nm, fluorescence wavelength of 515 nm, measurement of the amount of neurite outgrowth: excitation wavelength of 555 nm, fluorescent wavelength of 565 nm).

With “NGF: positive control: a test medium containing a 100 ng/mL nerve growth factor (NGF) [reference compound]”, in the assay on PC12 cells [1], the “cells showing a neurite outgrowth rate of 1 time or more” value came to 68.8% and the “cells showing a neurite outgrowth rate of 2 times or more” value is 54.5%. Moreover, the “amount of neurite outgrowth per cell as compared with the non-added section” value in the assay with PC12 cells [2] came to 183.1%.

For the origin of these results see US20170223976A1, “MODIFIED MILK POWDER CONTAINING 1,5-ANHYDRO-D-GLUCITOL” (NIHON STARCH CO., LTD., priority 2015, published 2017).
